For experiment [1], the system named is E. coli. The experiment in a line: FLIM-phasors of E. coli exposed to ampicillin (preliminary data, FIG. 13). It is filed as cell-based. An excerpt: The process of antibiotic susceptibility testing involves: isolation of bacteria from patient samples, immobilization of bacteria on agarose pads that contain different antibiotics supplied above the accepted minimum inhibitory concentration from the major classes commonly used in clinical settings including amoxicillin (penicillin-type), cephalexin (cephalosporin), erythromycin (macrolide), ciprofloxacin (fluoroquinolone), trimethoprim (sulfonamide), tetracycline, and gentamicin (aminoglycoside), imaging using the FLIM-AST device immediately and at 15-minute intervals for 2 hours to assess metabolic kinetics in response to antibiotics (FIG. 12).
The antibiotic susceptibility determination is performed by comparing FLIM-phasor profiles during the 2-hour incubation using software.
The FLIM microscope uses an 80 MHz ultrafast Ti:Sapphire Mai Tai laser (Spectra-physics, Santa Clara, Calif.) set at 740 nm for excitation. […] An H7422P-40 photomultiplier tube module (Hamamatsu, Bridgewater, N.J.) and A320 FastFLIM Box (ISS, Champaign, Ill.) were used to measure fluorescence lifetime. Image acquisition was controlled by SimFCS software (Laboratory for Fluorescence Dynamics, Irvine, Calif.).

Experiment [2] deals with surface-attached P. aeruginosa. The experiment in a line: Image-based virulence (host killing) assay with amoeba host cells and calcein-AM. Format: cell-based, Pseudomonas aeruginosa. As to the method: P. aeruginosa cells were assayed using an image-based virulence assay as described previously (12, 50). P. aeruginosa strains were cultured in PS:DB, diluted 1:100 into 60×15 mm plastic petri dishes (Corning, Corning, N.Y.), cultured for 4 to 6 hours by shaking at 100 rpm, and harvested. Planktonic cells were assayed by transferring 10 μL of culture from the petri dish to a new petri dish, mixing with an equal volume of D. discoideum that were grown to an OD600 of 0.2-0.5, and immobilizing by placing an agar pad on top of the mixture (FIG. 11C). Agar pads were made using Bacto agar at a concentration of 1%, DB buffer, and 1 μM calcein acetoxymethyl (AM) ester (Molecular Probes, Eugene, Oreg.), and were cut into 1.5×1.5 cm squares (12, 50). Surface-attached cells were assayed by aspirating planktonic cells from the culture, washing with DB buffer to remove planktonic cells, mixing with an equal volume of D. discoideum, and immobilizing by placing an agar pad on top of the mixture (FIG. 11C) (50). The immobilized planktonic or surface-attached P. aeruginosa and D. discoideum were incubated at room temperature for 1 hour and imaged using fluorescence microscopy. The host killing index (12, 50) was computed as the average ratio of calcein-AM fluorescence to cell area in individual amoeba cells for 30 to 200 cells in each experiment.
Fluorescence microscopy to assess calcein-AM fluorescence was performed using a Nikon Eclipse Ti-E microscope (Nikon, Melville, N.Y.) containing Nikon 10× Plan Fluor Ph1 (0.3 NA) and 20×S Plan Fluor Nikon (0.45 NA) objectives, a Sola light engine (Lumencor, Beaverton, Oreg.), an LED-DA/FI/TX filter set (Semrock, Rochester, N.Y.) containing a 409/493/596 dichroic and 474/27 nm and 525/45 nm filters for excitation and emission, respectively, and a Hamamatsu Orca Flash 4.0 V2 camera (Hamamatsu, Bridgewater, N.J.). Images were acquired using Nikon NIS-Elements and analyzed using custom built software written previously (12) in Matlab (Mathworks, Natick, Mass.).
For experiments in which strains cultured in PS:DB were supplemented with individual carbon sources (FIG. 5A-D), pyruvic acid, citric acid, […], glycerol, or glucose was added to cultures at a final concentration of 0.2% at 3 hours following a 1:100 dilution from an overnight culture. Cultures were harvested after 1 additional hour of growth for measurements of fluorescence lifetime and NADH and NAD^+ concentrations. For experiments in which surface-attached strains that were cultured in PS:DB media were treated with antimycin A (FIG. 5E-F), 10 μM antimycin A dissolved in 0.1% ethanol, 0.1% ethanol, alone, or 10 μM antimycin A dissolved in 0.1% ethanol and 0.2% citric acid were added after 3 hours of growth following a 1:100 dilution from an overnight culture. Host killing was measured after an additional 1 to 3 hours of growth (total of 4 to 6 hours of growth).

Experiment [3] concerns E. coli. The experiment can be described thus: FLIM-AST (FAST) antibiotic susceptibility, g value and residual ratio (RR). Format: cell-based. The following applies: tetracycline-sensitive vs tetracycline-resistant strain, 1 hour. An excerpt: We performed FLIM measurements using our FLIM AST (FAST) device of antibiotic-sensitive and antibiotic-resistant E. coli lab strains MG1655 and MC4100, P. aeruginosa strain PA14, and S. aureus strain RN4220 using a broad range of commonly-used antibiotics including tetracycline, ampicillin, carbenicillin, chloramphenicol, spectinomycin, gentamycin, and kanamycin and using a range of concentrations for each drug. For each antibiotic and strain combination, the minimum inhibitory concentration for each antibiotic was determined through measurements of optical densities of cultures. We treated bacterial strains using a range of concentrations starting from below-MIC to above-MIC concentrations for 1 hour.
We computed g values using the FLIM phasor method. Consistent with our predictions, we observed a significant change in g value following treatment by many antibiotics.
To determine a quantitative assessment of resistance, we computed a metric for the degree of antibiotic susceptibility for a given bacterial strain. Our experiments determined that the residual ratio (RR) number was a good indicator of antibiotic resistance:
where the g value is obtained using the phasor method to fluorescence lifetime imaging microscopy (FLIM) and t0 and t1 are the measurement times at the beginning of the measurement or at the end of the experiment, respectively. […]

The test system of a further experiment is P. aeruginosa. The experiment in a line: Fluorescence lifetime imaging microscopy (FLIM) phasor g-values of P. aeruginosa. Format: cell-based, Pseudomonas aeruginosa. The following applies: planktonic wild-type, 0.2% citrate as sole carbon source, 10 μM antimycin A in 0.1% ethanol vs 0.1% ethanol. Here is the method:
Fluorescence lifetime measurements were performed using a custom-built multiphoton microscope setup based on an Olympus FV1000 system and an Olympus IX81 microscope (Olympus, Waltham, Mass.) as described previously (68). The FLIM microscope uses an 80 MHz ultrafast Ti:Sapphire Mai Tai laser (Spectra-physics, Santa Clara, Calif.) set at 740 nm for mulitphoton excitation. The setup used a 690-nm SP dichroic-460/80 nm filter pair for separating emission and a PlanApo N Olympus oil immersion 60× (1.42 NA) objective (Olympus, Waltham, Mass.), which is capable of bacterial single-cell resolution imaging. An H7422P-40 photomultiplier tube module (Hamamatsu, Bridgewater, N.J.) and A320 FastFLIM Box (ISS, Champaign, Ill.) were used to measure fluorescence lifetime. Image acquisition was controlled by SimFCS software version 4 (64-bit) (Laboratory for Fluorescence Dynamics, Irvine, Calif.). Planktonic and surface-attached cells were isolated by modifying a protocol described previously (12, 50) (FIG. 11A).
Masks for bacterial cells were created through SimFCS using fluorescence intensity images and image intensity thresholding (FIG. 11B). Fluorescence lifetimes within the masked areas were transformed using
The microscope was calibrated before each session by setting the fluorescence lifetime obtained for 10 μM rhodamine 110 (Sigma, St. Louis, Mo.) to 4.0 ns. The laser power was set to 20% (<3 mW at back aperture of the microscope) using an acousto-optic modulator (AA Opto Electronic, Orsay, France). Sub-cellular fluorescence lifetimes (FIG. 1A) were collected using the 20× digital zoom mode at a rate of 1.7 sec/frame. All other P. aeruginosa measurements were performed using the 6× digital zoom mode using the same frame rate. For all measurements, 40 sequential frames were acquired to generate a single FLIM image.
P. aeruginosa strains were cultured overnight in PS:DB, diluted 1:100 into 35 mm glass-bottom dishes (MatTek Corporation, Ashland, Mass.) containing the same medium, and cultured for 4 to 6 hours (FIGS. 2E-F, 4A, 5A, and 8C). Alternatively, strains were cultured overnight in minimal medium A, diluted 1:100 into modified minimal media A with single carbon sources in culture tubes (FIGS. 6D-E and 7A-B, D) or glass-bottom dishes and cultured to an OD600 of 0.2 (FIG. 2E-F).
Planktonic cells were transferred to a new glass-bottom dish, immobilized using an agar pad, and imaged immediately (FIG. 11A). Agar pads were made using 1% Bacto agar (BD, Franklin Lakes, N.J.) and DB buffer (1, 2) or modified minimal medium A containing no carbon source for strains that were cultured in PS:DB or modified minimal medium, respectively, and were cut into 1.5×1.5 cm squares. Surface-attached cells were isolated by aspirating the supernatant from the dish, washing the dish to remove planktonic cells with DB buffer or modified minimal medium with no carbon source for strains cultured in PS:DB or modified minimal medium, respectively, and placing an agar pad on the dish surface, and were imaged immediately. Imaging was performed at room temperature.
For experiments involving FLIM measurements of the effects of antimycin A (FIG. 7D), P. aeruginosa were grown in culture tubes to saturation in modified minimal medium A containing 0.2% citrate, diluted 1:100 into the same medium in culture tubes, supplemented with 10 μM antimycin A (Sigma, St. Louis, Mo.) with 0.1% ethanol or with 0.1% ethanol, cultured to an OD600 of 0.2, and immediately measured for fluorescence lifetime. Fluorescence lifetimes for pyocyanin and pyoverdine (FIG. 7C) were measured using solutions of 6.2 mM pyocyanin (P0046, Sigma, St. Louis, Mo.) in DMSO and 5 mg/mL pyoverdine (P8124, Sigma, St. Louis, Mo.) in deionized water, respectively. For FIG. 6D, cells with fluorescence intensities below a value of 1.0, as reported by the SimFCS software, were excluded from the analysis. […]

Regarding `CC1(C)S[C@@H]2[C@H](NC(=O)[C@H](N)c3ccccc3)C(=O)N2[C@H]1C(=O)O` [ampicillin], in the experiment on E. coli [1] (E. coli exposed to ampicillin), the “average values along the g-axis” value is recorded as “vary with concentration”. Also, the “phasor profile after drug is removed” value in the experiment with E. coli [1] (E. coli, after ampicillin is removed) was “recovers to smaller values of g”.

On to `O=P(O)(O)O` [phosphoric acid, reference compound], for which, in experiment [2] (surface-attached wild-type P. aeruginosa in rich (PS:DB) medium, supplemented at 3 hours at 0.2%, assessed after 6 hours of growth, amoeba host cells), the “host-killing activity (host killing index)” value is on record as “little impact on host-killing activity”.

For `CN(C)[C@@H]1C(O)=C(C(N)=O)C(=O)[C@@]2(O)C(O)=C3C(=O)c4c(O)cccc4[C@@](C)(O)[C@H]3C[C@@H]12` [tetracycline], in the experiment with E. coli [3], the “concentration at which the increase in RR value begins” value was determined as 50 µg/mL.

Take antimycin A [reference compound]: in experiment [2] (surface-attached P. aeruginosa, 10 μM antimycin A in 0.1% ethanol added at 3 hours, host killing at 4.5 to 6 hours), the “virulence induced earlier than untreated cells” value is 30 min. The “shift in fluorescence lifetime g-value” in the experiment with P. aeruginosa was “shift towards higher g-value”.

These data come from patent US20220287995A1, “COMPOSITIONS AND METHODS FOR INHIBITING BACTERIAL VIRULENCE AND FLIM-BASED DEVICE AND METHOD FOR ANTIBIOTIC SUSCEPTIBILITY TESTING” (THE REGENTS OF THE UNIVERSITY OF CALIFORNIA, priority 2019, published 2022).
